Source: patent US20090220996A1, “In vitro Assay Methods for Classifying Embryotoxicity of Compounds” (RELIANCE LIFE SCIENCES PVT LTD., priority 2007, published 2009)
≈ marks a conversion by molar mass, not a printed value. Where two headings read alike, the source gives them in different places.

What was measured:
mouse ES cells = conditions: Table 4; from the EST (Genschow, et al., 2000); cited from earlier work
[1] = tested on: human embryonic stem cells (hES); test: Cytotoxicity in undifferentiated human embryonic stem cells, day 15 (FACS with PI / CyQUANT); format: cell-based; conditions: for IC50: Homo sapiens, Embryonic stem cell
Description: In general, the presently disclosed embryotoxicity testing protocols comprise the following sequence of steps. Studies using embryoid bodies generally comprise: a) preparation of various concentrations of test solutions in culture medium or a desired solvent; b) preparation of a cell suspension by enzymatic digestion of human embryonic stem cell colonies; c) culturing the cell suspension for formation of embryoid bodies in the presence and absence of one or more test solutions, and incubation for several days (e.g., three days) in hanging drops; d) cultivation of the embryoid bodies in bacteriological petri dishes for several days (e.g., two days) under controlled conditions; e) transfer of the embryoid bodies into 96 well plates and incubation for several days (e.g., 10 days) in the presence of one or more test solutions; and f) detection of the viability of the embryoid bodies after 15 days by MTT assay, or fluorescent or luminescent method, and isolation of RNA for studying gene expression. Studies using human foreskin fibroblasts (HFF) generally comprise: a) preparation of various concentrations of test solutions in culture medium or a desired solvent; b) plating of HFF cells in 96 well plates in the presence or absence of one or more test solutions for 15 days, changing the media and test solutions every 2 days; and c) detection of the viability of HFF after 15 days by MTT assay, or fluorescent or luminescent method. Studies using human embryonic stem cells generally comprise: a) preparation of various concentrations of test solutions in culture medium or a desired solvent; b) preparation of hES colonies by manual passage in the presence and absence of one or more test solutions, and incubation for 15 days on matrigel coated plates changing the media and test solutions every 2 days; c) disruption of the colonies after 15 days with enzymes to form single cells; d) labeling of single cells with a fluorescently-labeled dye, such as propidium iodide (“PI”); and e) detection of the percentage viability with FACS as a measure of cytotoxicity. […]
After 2 hours incubation, 150 μl of assay medium containing the appropriate concentration of test chemical (150 μl volume contains 1.333× the final chemical concentration) was added. Appropriate blanks without the chemicals were used along with the test samples The cell cultures were incubated at 5% CO2 and 37° C. for 3 days. On day 3, test solution was removed with the care, so that the cell layer on the bottom of the wells was not disturbed. Next, 200 μl of freshly prepared test solution (final concentration/well as on day 0) was added, and the cell cultures were incubated at 5% CO2 and 37° C. for 3 days. This process was repeated on days 6, 9, and 12. Determination of cell growth inhibition was performed at day 15 of the assay using MTT reagent. Cytotoxicity for hES cells was calculated using flow cytometry. Briefly, cells were placed on matrigel coated plates along with different test compound concentrations. Media was replaced every 3 days along with the different test compound concentrations. At day 15, hES cells were collected by trypsinization, and after washing with PBS, the cells were incubated with PI for 10 minutes in the dark. Percent viability for various test compound concentrations was calculated using flow cytometry.
Cytotoxicity analysis of three cell types (hES, hEBs and HFF) was evaluated using the CyQUANT assay following compound treatment. All data were the mean of three independent experiments for each cell type. Data is represented as the mean±SE.

[2] = tested on: human embryoid bodies (hEBs); test: Morphological evaluation of embryoid bodies (photomicrographs); format: cell-based; conditions: for concentration required to elicit a similar morphological response (loss of compactness, decreased EB size): day 7 hEBs, FIG. 4A-4D; for morphology of treated hEBs compared to controls: day 7, 10 μg/ml (FIG. 4E-c, 4F-c)
Description: Hanging drops were made in hES media with LIF and bFGF for calculating IC50-hES cells, and in hES media without LIF and bFGF (hEB media) for the formation of EBs. On day 3 the hES colonies were collected along with the respective test compound concentration, whereas the hEBs were collected and transferred to 60 mm bacteriological petri plates for another 2 days. Morphology of the EBs was monitored under the microscope for the formation of EBs. On day 5 the hEBs were plated in a 96 well plate for MTT, as well as on a 6 well plate for RNA extraction. The media along with the appropriate test compound concentration was replaced in the 96 well and 6 well plates on days 7, 9, 11, and 13. On day 15, MTT was performed on the hES plate and the differentiated EBs. RNA was extracted from all the concentrations of 5-fluorouracil, and 1 μg of RNA was converted to cDNA to perform RT-PCR, real time PCR, or TLDA.

[3] = Table 5; cited from earlier work
[4] = tested on: 3T3 (mouse fibroblast cell line); conditions: Table 4; from the EST (Genschow, et al., 2000); cited from earlier work
[5] = cited from earlier work
[6] = 360 h, Table 3, mean of 3 experiments, day 15, read-out: IC50-hES
[7] = Table 4, CyQuant cell viability assay, read-out: Human EST IC50 - hES

COc1ccc2c(c1)c(CC(=O)O)c(C)n2C(=O)c1ccc(Cl)cc1 [Indomethacin, indomethacin]
Mouse EST IC50 - mES (mouse ES cells): 29 µg/mL
IC50 [1, 6]: 73.4 ± 3.4 µg/mL (≈ 205 µM)
IC50 [1, 7]: 73.4 ± 3.4 µg/mL (≈ 205 µM)
concentration required to elicit a similar morphological response (loss of compactness, decreased EB size) [2]: 100 μg/ml
General toxicity [3]: Cardiac, Renal
Mouse EST IC50 - 3T3 [4]: 27 µg/mL

O=c1[nH]cc(F)c(=O)[nH]1 [5-Fluorouracil, 5-fluorouracil]
IC50 [1, 6]: 0.546 µg/mL (≈ 4.2 µM)
survival percentage ([1]; hES, 1 μg/ml, day 15, FIG. 3A): 30%
effect on cell viability ([1]; hES, up to 0.01 μg/ml, FIG. 3A): no major effect
morphology of 5 day old EBs compared to control ([2]; 1 μg/ml, day 5, FIG. 2A): significant change in the morphology

Cn1c(=O)c2c(ncn2C)n(C)c1=O [Caffeine, caffeine]
IC50 [1, 6]: 110 ± 12.5 µg/mL (≈ 566 µM)
IC50 [1, 7]: 110 ± 12.5 µg/mL (≈ 566 µM)
survival ([1]; hES, 500 μg/ml, FIG. 3B): about 10%
morphology of 5 day old EBs ([2]; increasing dose (50 and 500 μg/ml), day 5, FIG. 2B): significant darkening of the cells
General toxicity [3]: Cardiac, CNS

CS(=O)(=O)OCCCCOS(C)(=O)=O [Busulfan, busulfan]
Mouse EST IC50 - mES (mouse ES cells): 2.1 µg/mL
IC50 [1, 6]: 2.1 ± 0.6 µg/mL (≈ 8.53 µM)
IC50 [1, 7]: 2.1 ± 0.6 µg/mL (≈ 8.53 µM)
morphology of treated hEBs compared to controls [2]: loss of compactness and a decrease in the size of the EBs
Therap. range in human serum [5]: <0.6 µg/mL
Therap. range in human serum ([5]; listed as busulfan): less than 0.6 μg/ml
Effects on fetus [3]: Reproductive
General toxicity [3]: Hematopoietic
Mouse EST IC50 - 3T3 [4]: 4.8 µg/mL

NC(=O)NO [Hydroxyurea, hydroxyurea]
Mouse EST IC50 - mES (mouse ES cells): 2.0 µg/mL
IC50 [1, 6]: 2.6 ± 0.2 µg/mL (≈ 34.2 µM)
IC50 [1, 7]: 2.6 ± 0.2 µg/mL (≈ 34.2 µM)
morphology of treated hEBs compared to controls [2]: loss of compactness and a decrease in the size of the EBs
Therap. range in human serum [5]: <9.88 µg/mL
Mouse EST IC50 - 3T3 [4]: 7.2 µg/mL

CC1(C)S[C@@H]2[C@H](NC(=O)Cc3ccccc3)C(=O)N2[C@H]1C(=O)O [Penicillin G, penicillin G]
Mouse EST IC50 - mES (mouse ES cells): 2950 µg/mL
IC50-hES ([1]; Table 3, mean of 3 experiments, day 15): 2013 ± 23.5 µg/mL (≈ 6020 µM)
Human EST IC50 - hES ([1]; Table 4, CyQuant cell viability assay): 2013 ± 23.5 µg/mL
cell survival ([1]; hES, 5000 μg/ml (highest dose), FIG. 3C): 1-2%
morphology of 5 day old EBs ([2]; 5000 μg/ml (highest dose), day 5, FIG. 2C): non-significant darkening
concentration required to elicit a similar morphological response (loss of compactness, decreased EB size) [2]: 5000 μg/ml
morphology of 5 day old EBs ([2]; up to 1000 μg/ml, day 5, FIG. 2C): no significant change
Therap. range in human serum [5]: 300 to 500 µg/mL
Effects on fetus [3]: None in Humans
General toxicity [3]: Hypersensitivity
Mouse EST IC50 - 3T3 [4]: 1586 µg/mL
